Measurements published in patent publication EP4755888A1 (ILAb Co., Ltd., priority 2023, dated 2025).

The compounds below were run against PD-1/PD-L1 (Homo sapiens, UniProt Q9NZQ7) (assay: TR-FRET PD-1/PD-L1 binding inhibition at the molecular level (free proteins)). Details: Tag1-PD-L1 and Tag2-PD-1 proteins, twelve concentrations from 200 nM, 2 hours at room temperature, read-out: FRET assay (IC50).
PD-1/PD-L1, sequence (Q9NZQ7 19-238 limits assumed): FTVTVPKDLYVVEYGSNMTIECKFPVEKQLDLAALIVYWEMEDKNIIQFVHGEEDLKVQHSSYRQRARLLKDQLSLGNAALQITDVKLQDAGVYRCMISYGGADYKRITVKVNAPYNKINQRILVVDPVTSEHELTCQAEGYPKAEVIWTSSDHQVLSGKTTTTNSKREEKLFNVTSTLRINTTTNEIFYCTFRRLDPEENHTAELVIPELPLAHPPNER
How it was run: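 HTRF read-out at 665/620 nm after 2 h at room temperature. Detection used anti-Tag1 Eu cryptate plus anti-Tag2 XL665 antibodies. Tagged PD-L1 and PD-1 proteins were pre-mixed with compound across twelve […] 1:2 dilutions starting at 200 nM.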
For `Cc1c(NC(=O)c2cc3n(n2)CCCC3NCCO)cccc1-c1cccc(NC(=O)c2nc3c(s2)CN(C)CC3)c1C` (stereo not shown) [Compound 147, N-(3'-(4-((2-hydroxyethyl)amino)-4,5,6,7-tetrahydropyrazolo[1,5-a]pyridine-2-carboxamido)-2,2'-dimethyl-[1,1'-biphenyl]-3-yl)-5-methyl-4,5,6,7-tetrahydrothiazolo[5,4-c]pyridine-2-carboxamide], the IC50 was under 10 nM.
Work on `CC(=O)NCCNC1CCCn2nc(C(=O)Nc3cccc(-c4cccc(NC(=O)c5nc6c(s5)CN(C)CC6)c4C)c3C)cc21` (stereo not shown) [Compound 148, N-(3'-(4-((2-acetamidoethyl)amino)-4,5,6,7-tetrahydropyrazolo[1,5-a]pyridine-2-carboxamido)-2,2'-dimethyl-[1,1'-biphenyl]-3-yl)-5-methyl-4,5,6,7-tetrahydrothiazolo[5,4-c]pyridine-2-carboxamide] yielded an IC50 of under 10 nM.
`Cc1c(NC(=O)c2cc3n(n2)CCCC3NCC(=O)O)cccc1-c1cccc(NC(=O)c2nc3c(s2)CN(C)CC3)c1C` (stereo not shown) [Compound 149, 2-((2-((2,2'-dimethyl-3'-(5-methyl-4,5,6,7-tetrahydrothiazolo[5,4-c]pyridine-2-carboxamido)-[1,1'-biphenyl]-3-yl)carbamoyl)-4,5,6,7-tetrahydropyrazolo[1,5-a]pyridin-4-yl)amino)acetic acid] was tested, and the IC50 was under 10 nM.
With `Cc1c(NC(=O)c2cc3n(n2)CCCC3N2CC[C@@H](O)C2)cccc1-c1cccc(NC(=O)c2nc3c(s2)CN(C)CC3)c1C` (stereo partly drawn) [Compound 150, N-(3'-(4-((R)-3-hydroxypyrrolidin-1-yl)-4,5,6,7-tetrahydropyrazolo[1,5-a]pyridine-2-carboxamido)-2,2'-dimethyl-[1,1'-biphenyl]-3-yl)-5-methyl-4,5,6,7-tetrahydrothiazolo[5,4-c]pyridine-2-carboxamide] the IC50 was under 10 nM.
With `O=C(Nc1cccc(-c2cccc(NC(=O)c3nc4c(s3)CN(CCF)CC4)c2Cl)c1Cl)c1cc2n(n1)CCCC2NCCO` (stereo not shown) [Compound 150-1, N-(2,2'-dichloro-3'-(4-((2-hydroxyethyl)amino)-4,5,6,7-tetrahydropyrazolo[1,5-a]pyridine-2-carboxamido)-[1,1'-biphenyl]-3-yl)-5-(2-fluoroethyl)-4,5,6,7-tetrahydrothiazolo[5,4-c]pyridine-2-carboxamide] the IC50 was under 10 nM.
`O=C(O)CNC1CCCn2nc(C(=O)Nc3cccc(-c4cccc(NC(=O)c5nc6c(s5)CN(CCF)CC6)c4Cl)c3Cl)cc21` (stereo not shown) [Compound 150-2, 2-((2-((2,2'-dichloro-3'-(5-(2-fluoroethyl)-4,5,6,7-tetrahydrothiazolo[5,4-c]pyridine-2-carboxamido)-[1,1'-biphenyl]-3-yl)carbamoyl)-4,5,6,7-tetrahydropyrazolo[1,5-a]pyridin-4-yl)amino)acetic acid] showed an IC50 of under 10 nM.
With `CC(=O)NCCNC1CCCn2nc(C(=O)Nc3cccc(-c4cccc(-c5nc6c(s5)CCN(C)C6)c4C)c3C)cc21` (stereo not shown) [Compound 152, 4-((2-acetamidoethyl)amino)-N-(2,2'-dimethyl-3'-(5-methyl-4,5,6,7-tetrahydrothiazolo[4,5-c]pyridin-2-yl)-[1,1'-biphenyl]-3-yl)-4,5,6,7-tetrahydropyrazolo[1,5-a]pyridine-2-carboxamide] the IC50 was 10 to 100 nM.
Compound `Cc1c(NC(=O)c2cc3n(n2)CCCC3NCC(=O)O)cccc1-c1cccc(-c2nc3c(s2)CCN(C)C3)c1C` (stereo not shown) [Compound 153, 2-((2-((2,2'-dimethyl-3'-(5-methyl-4,5,6,7-tetrahydrothiazolo[4,5-c]pyridin-2-yl)-[1,1'-biphenyl]-3-yl)carbamoyl)-4,5,6,7-tetrahydropyrazolo[1,5-a]pyridin-4-yl)amino)acetic acid] has an IC50 of under 10 nM.
`Cc1c(NC(=O)c2cc3n(n2)CCCC3N2CC[C@@H](O)C2)cccc1-c1cccc(-c2nc3c(s2)CCN(C)C3)c1C` (stereo partly drawn) [Compound 154, N-(2,2'-dimethyl-3'-(5-methyl-4,5,6,7-tetrahydrothiazolo[4,5-c]pyridin-2-yl)-[1,1'-biphenyl]-3-yl)-4-((R)-3-hydroxypyrrolidin-1-yl)-4,5,6,7-tetrahydropyrazolo[1,5-a]pyridine-2-carboxamide] was tested, and the IC50 was 10 to 100 nM.
Work on `Cc1c(-c2cc3n(n2)CCCC3N2CCC(O)C2)cccc1-c1cccc(-c2cc3n(n2)CCCC3N2CCC(O)C2)c1C` [Compound 156, (3R,3'R)-1,1'-(2,2'-(2,2'-dimethyl-[1,1'-biphenyl]-3,3'-diyl)bis(4,5,6,7-tetrahydropyrazolo[1,5-a]pyridine-4,2-diyl))bis(pyrrolidin-3-ol)] yielded an IC50 of 100 to 1000 nM.
Compound `Cc1c(-c2cc3n(n2)CCCC3NCCO)cccc1-c1cccc(-c2cc3n(n2)CCCC3N2CC[C@@H](O)C2)c1C` (stereo partly drawn) [Compound 157, (3R)-1-(2-(3'-(4-((2-hydroxyethyl)amino)-4,5,6,7-tetrahydropyrazolo[1,5-a]pyridin-2-yl)-2,2'-dimethyl-[1,1'-biphenyl]-3-yl)-4,5,6,7-tetrahydropyrazolo[1,5-a]pyridin-4-yl)pyrrolidin-3-ol] has an IC50 of over 1000 nM.
Work on `Cc1c(NC(=O)c2cc3n(n2)CCCC3NCCO)cccc1-c1cccc(-c2cc3n(n2)CCCC3NCCO)c1C` (stereo not shown) [Compound 158, 4-((2-hydroxyethyl)amino)-N-(3'-(4-((2-hydroxyethyl)amino)-4,5,6,7-tetrahydropyrazolo[1,5-a]pyridin-2-yl)-2,2'-dimethyl-[1,1'-biphenyl]-3-yl)-4,5,6,7-tetrahydropyrazolo[1,5-a]pyridine-2-carboxamide] yielded an IC50 of 10 to 100 nM.
`Cc1c(NC(=O)c2cc3n(n2)CCCC3NCCO)cccc1-c1cccc(-c2cc3n(n2)CCCC3N2CC[C@@H](O)C2)c1C` (stereo partly drawn) [Compound 159, 4-((2-hydroxyethyl)amino)-N-(3'-(4-((R)-3-hydroxypyrrolidin-1-yl)-4,5,6,7-tetrahydropyrazolo[1,5-a]pyridin-2-yl)-2,2'-dimethyl-[1,1'-biphenyl]-3-yl)-4,5,6,7-tetrahydropyrazolo[1,5-a]pyridine-2-carboxamide] was tested, and the IC50 was 10 to 100 nM.
Compound `Cc1c(NC(=O)c2cc3n(n2)CCCC3N2CC[C@@H](O)C2)cccc1-c1cccc(-c2cc3n(n2)CCCC3NCCO)c1C` (stereo partly drawn) [Compound 160, N-(3'-(4-((2-hydroxyethyl)amino)-4,5,6,7-tetrahydropyrazolo[1,5-a]pyridin-2-yl)-2,2'-dimethyl-[1,1'-biphenyl]-3-yl)-4-((R)-3-hydroxypyrrolidin-1-yl)-4,5,6,7-tetrahydropyrazolo[1,5-a]pyridine-2-carboxamide] has an IC50 of 10 to 100 nM.
Work on `Cc1c(NC(=O)c2cc3n(n2)CCCC3N2CC[C@@H](O)C2)cccc1-c1cccc(-c2cc3n(n2)CCCC3N2CC[C@@H](O)C2)c1C` (stereo partly drawn) [Compound 161, 4-((R)-3-hydroxypyrrolidin-1-yl)-N-(3'-(4-((R)-3-hydroxypyrrolidin-1-yl)-4,5,6,7-tetrahydropyrazolo[1,5-a]pyridin-2-yl)-2,2'-dimethyl-[1,1'-biphenyl]-3-yl)-4,5,6,7-tetrahydropyrazolo[1,5-a]pyridine-2-carboxamide] yielded an IC50 of 10 to 100 nM.
Work on `COc1nc(-c2cccc(-c3cccc(-c4cc5n(n4)CCCC5NCCO)c3C)c2C)cnc1CNC[C@@H]1CCC(=O)N1` (stereo partly drawn) [Compound 162, (5S)-5-((((5-(3'-(4-((2-hydroxyethyl)amino)-4,5,6,7-tetrahydropyrazolo[1,5-a]pyridin-2-yl)-2,2'-dimethyl-[1,1'-biphenyl]-3-yl)-3-methoxypyrazin-2-yl)methyl)amino)methyl)pyrrolidin-2-one] yielded an IC50 of 10 to 100 nM.
